Our source for the IC50 values is patent US20240317744A1, “Bicyclic Ureas As Kinase Inhibitors” (Incyte Corporation, priority 2023, published 2024).

Assay [1] has as its target T1, catalytic domain (JH1, amino acids 826-1132) of human JAK2 (Homo sapiens, UniProt O60674).
T1 construct: catalytic domain (JH1, amino acids 826-1132) of human JAK2; FLAG (N); biotin (biotinylated); purchased Carna Biosciences 08-445-20N; host or cells: baculovirus expression system
In words: JAK2 LanthaScreen JH1 Binding Assay. The note with it: JAK2 JH1 1.5 nM, 50 nM tracer, 2 hours at 25° C.; read-out: JH1 BIND. The essentials: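 FLAG-tagged, biotinylated JAK2 JH1 (aa 826-1132, baculovirus-expressed; 1.5 nM) incubated 2 h at 25° C with compounds, 50 nM fluorescent tracer and 0.5 nM Streptavidin-Tb in Tris pH 7.5 buffer with MgCl2, Brij-35, BSA, EGTA, glycerol, DTT. Nonspecific binding defined with 2 mM ATP; TR-FRET IC50 from four-parameter fit.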
In general terms: In TR-FRET formats the signal depends on donor and acceptor labels being close together.

Assay [2] has as its target T2, pseudo-kinase domain (JH2, amino-acids 536-812) of human Wild Type JAK2 (Homo sapiens, UniProt O60674, F794H/W659A/W777A).
T2 construct: pseudo-kinase domain (JH2, amino-acids 536-812 with 3 surface mutations W659A, W777A, F794H); His (C); purchased BPS Bioscience 79463; host or cells: baculovirus expression system
In words: JAK2 LanthaScreen JH2-WT Binding Assay. The note with it: JAK2 JH2-WT 0.145 nM, 50 nM tracer, 1 hour at 25° C.; read-out: JH2 BIND WT. The essentials:
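IC50 values derive from four-parameter fits of LanthaScreen signal, measuring displacement of 50 nM fluorescent tracer from 0.145 nM biotinylated, baculovirus-expressed JH2 (536-812) detected by 0.25 nM streptavidin-Tb. Incubation lasts 1 hour at 25° C, pH 7.5.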

Assay [3] concerns the target T3, pseudo-kinase domain (JH2, amino-acids 536-812) of human V617F mutant JAK2 (Homo sapiens, UniProt O60674, F794H/V617F/W659A/W777A).
T3 construct: pseudo-kinase domain (JH2, amino-acids 536-812 with 3 surface mutations W659A, W777A, F794H); His (C); purchased BPS Bioscience 79498; host or cells: baculovirus expression system
The assay is described as follows: JAK2 LanthaScreen JH2-V617F Binding Assay. Particulars: JAK2 JH2-V617F 0.26 nM, 50 nM tracer, 1 hour at 25° C.; read-out: JH2 BIND V617F. The essentials:
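Competition of compounds with a fluorescent tracer (50 nM) for the biotinylated domain (0.26 nM), detected via streptavidin-Tb (0.25 nM) after 1 h at 25° C in pH 7.5 Tris buffer containing glycerol, BSA and Brij-35. ATP at 2 mM gave background. IC50 by four-parameter fit.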

Assay [4] deals with catalytic domain (JH1, amino acids 808-1132) of human JAK2 (Homo sapiens, UniProt O60674). The assay is described as follows: JAK2 HTRF Enzyme Activity Assay. Format: biochemical. The note with it: ATP 30 µM, 60 minutes at 25° C.; read-out: V617F ENZ 30 UM.
Chain of catalytic domain (JH1, amino acids 808-1132) of human JAK2 (O60674 808-1132 limits assumed): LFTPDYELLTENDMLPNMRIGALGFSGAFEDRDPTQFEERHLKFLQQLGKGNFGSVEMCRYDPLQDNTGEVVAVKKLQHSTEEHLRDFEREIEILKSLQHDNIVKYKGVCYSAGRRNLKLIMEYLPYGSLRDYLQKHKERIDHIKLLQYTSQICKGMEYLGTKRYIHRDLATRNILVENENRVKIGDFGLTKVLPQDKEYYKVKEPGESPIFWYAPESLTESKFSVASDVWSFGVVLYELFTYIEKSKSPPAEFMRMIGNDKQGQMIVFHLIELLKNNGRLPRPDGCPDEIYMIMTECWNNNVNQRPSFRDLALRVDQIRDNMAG

T1 sequence (O60674 826-1132): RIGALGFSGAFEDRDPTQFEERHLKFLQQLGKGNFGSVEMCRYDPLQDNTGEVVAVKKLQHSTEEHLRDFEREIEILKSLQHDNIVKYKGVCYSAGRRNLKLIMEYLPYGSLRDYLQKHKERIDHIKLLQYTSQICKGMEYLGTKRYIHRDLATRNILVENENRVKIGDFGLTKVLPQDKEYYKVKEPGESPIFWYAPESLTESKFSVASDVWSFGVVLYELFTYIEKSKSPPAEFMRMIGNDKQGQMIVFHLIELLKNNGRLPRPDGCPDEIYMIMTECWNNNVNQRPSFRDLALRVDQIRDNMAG
T2 sequence (O60674 536-812 W659A/W777A/F794H): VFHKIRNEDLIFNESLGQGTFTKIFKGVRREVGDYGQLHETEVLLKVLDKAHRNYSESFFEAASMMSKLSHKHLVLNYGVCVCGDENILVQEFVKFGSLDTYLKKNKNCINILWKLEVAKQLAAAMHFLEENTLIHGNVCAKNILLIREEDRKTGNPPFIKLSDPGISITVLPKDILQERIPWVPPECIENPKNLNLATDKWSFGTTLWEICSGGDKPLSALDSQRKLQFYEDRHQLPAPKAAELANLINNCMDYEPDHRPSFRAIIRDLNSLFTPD
T3 sequence (O60674 536-812 V617F/W659A/W777A/F794H): as the sequence (O60674 536-812 W659A/W777A/F794H) above, with V82F counted along it

`COC(=O)N[C@@H]1CC[C@@H](n2c(=O)n(C)c3cnc(Nc4cc(C)nc(N5CCC(F)(F)C5)n4)cc32)C1` [Example 84, Methyl ((1R,3R)-3-(6-((2-(3,3-difluoropyrrolidin-1-yl)-6-methylpyrimidin-4-yl)amino)-3-methyl-2-oxo-2,3-dihydro-1H-imidazo[4,5-c]pyridin-1-yl)cyclopentyl)carbamate]: the IC50 in assay [1] is more than 1 µM; in assay [2] it was not above 0.01 µM; in assay [3], not above 0.01 µM; in assay [4], more than 1 µM.

For `COC(=O)N[C@@H]1CC[C@@H](n2c(=O)n(C)c3cnc(Nc4ccnc(NC5CCOCC5)n4)cc32)C1` [Example 85, Methyl ((1R,3R)-3-(3-methyl-2-oxo-6-((2-((tetrahydro-2H-pyran-4-yl)amino)pyrimidin-4-yl)amino)-2,3-dihydro-1H-imidazo[4,5-c]pyridin-1-yl)cyclopentyl)carbamate], the IC50 is more than 1 µM in assay [1], 0.01 to 0.1 µM in assay [2], 0.01 to 0.1 µM in assay [3] and more than 1 µM in assay [4].

On to `COC(=O)N[C@@H]1CC[C@@H](n2c(=O)n(C)c3cnc(Nc4cccc(C(=O)N5CCCCC5)n4)cc32)C1` [Example 86, Methyl ((1R,3R)-3-(3-methyl-2-oxo-6-((6-(piperidine-1-carbonyl)pyridin-2-yl)amino)-2,3-dihydro-1H-imidazo[4,5-c]pyridin-1-yl)cyclopentyl)carbamate], for which the IC50 in assay [1] is more than 1 µM; in assay [2], 0.01 to 0.1 µM; in assay [3], 0.1 to 0.5 µM; in assay [4], more than 1 µM.

For the molecule `COC(=O)N[C@@H]1CC[C@@H](n2c(=O)n(C)c3cnc(Nc4cccc(C(=O)NC5CCCCC5)n4)cc32)C1` [Example 87, Methyl ((1R,3R)-3-(6-((6-(cyclohexylcarbamoyl)pyridin-2-yl)amino)-3-methyl-2-oxo-2,3-dihydro-1H-imidazo[4,5-c]pyridin-1-yl)cyclopentyl)carbamate], the IC50 in assay [1] is more than 1 µM; in assay [2] it was not above 0.01 µM; in assay [3], 0.01 to 0.1 µM; in assay [4], more than 1 µM.

For `[2H]C([2H])([2H])n1c(=O)n([C@@H]2CC[C@@H](NC(=O)OC)C2)c2cc(Nc3ccc4c(n3)c(-c3cnn(C(F)(F)F)c3)cn4CCOC)ncc21` [Example 88, Methyl ((1R,3R)-3-(6-((1-(2-methoxyethyl)-3-(1-(trifluoromethyl)-1H-pyrazol-4-yl)-1H-pyrrolo[3,2-b]pyridin-5-yl)amino)-3-(methyl-d3)-2-oxo-2,3-dihydro-1H-imidazo[4,5-c]pyridin-1-yl)cyclopentyl)carbamate], the IC50 in assay [1] is more than 1 µM; in assay [2], not above 0.01 µM; in assay [3], not above 0.01 µM; in assay [4], more than 1 µM.

Regarding `[2H]C([2H])([2H])n1c(=O)n([C@@H]2CC[C@@H](NC(=O)OC)C2)c2cc(Nc3cc(-c4cnccc4C(F)(F)F)c4c(n3)n(-c3cnn(C(F)F)c3)c(=O)n4C)ncc21` [Example 89, Methyl ((1R,3R)-3-(6-((3-(1-(difluoromethyl)-1H-pyrazol-4-yl)-1-methyl-2-oxo-7-(4-(trifluoromethyl)pyridin-3-yl)-2,3-dihydro-1H-imidazo[4,5-b]pyridin-5-yl)amino)-3-(methyl-d3)-2-oxo-2,3-dihydro-1H-imidazo[4,5-c]pyridin-1-yl)cyclopentyl)carbamate], the IC50 is more than 1 µM in assay [1], not above 0.01 µM in assay [2], not above 0.01 µM in assay [3] and more than 1 µM in assay [4].

Regarding `[2H]C([2H])([2H])n1c(=O)n(C2CC3(CC(NC(=O)C4CC4)C3)C2)c2cc(Nc3cc(C(=O)N4CCOCC4)c4cccc(C(F)(F)F)c4n3)ncc21` (centres unmarked) [Example 90, N-(6-(3-(Methyl-d3)-6-((4-(morpholine-4-carbonyl)-8-(trifluoromethyl)quinolin-2-yl)amino)-2-oxo-2,3-dihydro-1H-imidazo[4,5-c]pyridin-1-yl)spiro[3,3]heptan-2-yl)cyclopropanecarboxamide], the IC50 in assay [1] was 0.1 to 0.5 µM; in assay [2], not above 0.01 µM; in assay [3] it was not above 0.01 µM; in assay [4], more than 1 µM.

`[2H]C([2H])([2H])n1c(=O)n([C@@H]2CC[C@](C)(NC(=O)C3CC3)C2)c2cc(Nc3cc(C(C)(C)O)cc(-c4ncc(Cl)s4)n3)ncc21` [Example 92, N-((1S,3R)-3-(6-((6-(5-Chlorothiazol-2-yl)-4-(2-hydroxypropan-2-yl)pyridin-2-yl)amino)-3-(methyl-d3)-2-oxo-2,3-dihydro-1H-imidazo[4,5-c]pyridin-1-yl)-1-methylcyclopentyl)cyclopropanecarboxamide]: the IC50 in assay [1] was more than 1 µM; in assay [2], not above 0.01 µM; in assay [3] it was not above 0.01 µM; in assay [4], more than 1 µM.

In the case of `[2H]C([2H])([2H])n1c(=O)n([C@@H]2CC[C@@H](NC(=O)OC)C2)c2cc(Nc3cc(C(C)(C)O)cc(-c4ncc(Cl)s4)n3)ncc21` [Example 93, Methyl ((1R,3R)-3-(6-((6-(5-chlorothiazol-2-yl)-4-(2-hydroxypropan-2-yl)pyridin-2-yl)amino)-3-(methyl-d3)-2-oxo-2,3-dihydro-1H-imidazo[4,5-c]pyridin-1-yl)cyclopentyl)carbamate], the IC50 in assay [1] was more than 1 µM; in assay [2], not above 0.01 µM; in assay [3], not above 0.01 µM; in assay [4], more than 1 µM.

In the case of `[2H]C([2H])([2H])n1c(=O)n([C@@H]2CC[C@@H](NC(=O)OC)C2)c2cc(Nc3cc(C(C)(C)O)c4cc(-c5cnn(C)c5)cc(C(F)(F)F)c4n3)ncc21` [Example 94, Methyl ((1R,3R)-3-(6-((4-(2-hydroxypropan-2-yl)-6-(1-methyl-1H-pyrazol-4-yl)-8-(trifluoromethyl)quinolin-2-yl)amino)-3-(methyl-d3)-2-oxo-2,3-dihydro-1H-imidazo[4,5-c]pyridin-1-yl)cyclopentyl)carbamate], the IC50 in assay [1] was more than 1 µM; in assay [2], not above 0.01 µM; in assay [3] it was not above 0.01 µM; in assay [4], more than 1 µM.

On to `[2H]C([2H])([2H])n1c(=O)n([C@@H]2CC[C@@H](NC(=O)OC)C2)c2cc(Nc3cc(C(C)(C)O)cc(-c4cnc(C(F)(F)F)s4)n3)ncc21` [Example 95, Methyl ((1R,3R)-3-(6-((4-(2-hydroxypropan-2-yl)-6-(2-(trifluoromethyl)thiazol-5-yl)pyridin-2-yl)amino)-3-(methyl-d3)-2-oxo-2,3-dihydro-1H-imidazo[4,5-c]pyridin-1-yl)cyclopentyl)carbamate], for which the IC50 is more than 1 µM in assay [1], not above 0.01 µM in assay [2], not above 0.01 µM in assay [3] and more than 1 µM in assay [4].

For the molecule `[2H]C([2H])([2H])n1c(=O)n([C@@H]2CC[C@@H](NC(=O)OC)C2)c2cc(Nc3cc(C(=O)N4CCOCC4)c4cccc(C(C)(C)C#N)c4n3)ncc21` [Example 96, Methyl ((1R,3R)-3-(6-((8-(2-cyanopropan-2-yl)-4-(morpholine-4-carbonyl)quinolin-2-yl)amino)-3-(methyl-d3)-2-oxo-2,3-dihydro-1H-imidazo[4,5-c]pyridin-1-yl)cyclopentyl)carbamate], the IC50 in assay [1] is more than 1 µM; in assay [2], not above 0.01 µM; in assay [3], not above 0.01 µM; in assay [4], more than 1 µM.

Regarding `[2H]C([2H])([2H])n1c(=O)n([C@@H]2CC[C@@H](NC(=O)OC)C2)c2cc(Nc3ccc(OC)c(-c4ncc(C(F)(F)F)s4)n3)ncc21` [Example 98, Methyl ((1R,3R)-3-(6-((5-methoxy-6-(5-(trifluoromethyl)thiazol-2-yl)pyridin-2-yl)amino)-3-(methyl-d3)-2-oxo-2,3-dihydro-1H-imidazo[4,5-c]pyridin-1-yl)cyclopentyl)carbamate], the IC50 is more than 1 µM in assay [1], not above 0.01 µM in assay [2], not above 0.01 µM in assay [3] and more than 1 µM in assay [4].

As for `[2H]C([2H])([2H])n1c(=O)n([C@@H]2CC[C@@H](NC(=O)OC)C2)c2cc(Nc3cc(C)cc(-c4ncc(C(C)(C)O)s4)n3)ncc21` [Example 99, Methyl ((1R,3R)-3-(6-((6-(5-(2-hydroxypropan-2-yl)thiazol-2-yl)-4-methylpyridin-2-yl)amino)-3-(methyl-d3)-2-oxo-2,3-dihydro-1H-imidazo[4,5-c]pyridin-1-yl)cyclopentyl)carbamate], the IC50 in assay [1] is more than 1 µM; in assay [2], not above 0.01 µM; in assay [3], not above 0.01 µM; in assay [4] it was more than 1 µM.
